Laboratory results: paper PMC9866191, “Novel 9-Benzylaminoacridine Derivatives as Dual Inhibitors of Phosphodiesterase 5 and Topoisomerase II for the Treatment of Colon Cancer” (Molecules, 2023)

Columns and labels:
Assay in all cases: NCI-60 one-dose screen
Format in all cases: cell-based
LOX IMVI = conditions: Homo sapiens, Melanoma panel, single dose 10^−5 M, read-out: Growth inhibition %
SK-OV-3 = conditions: Homo sapiens; SK-OV-3, Ovarian Cancer panel; single dose 10^−5 M; read-out: Growth inhibition %
NCI-H322M = conditions: Homo sapiens, Non-small cell lung panel, single dose 10^−5 M, read-out: Growth inhibition %
SF-295 = conditions: Homo sapiens; SF-295, CNS Cancer panel; single dose 10^−5 M; read-out: Growth inhibition %
OVCAR-5 = conditions: Homo sapiens; OVCAR-5, Ovarian Cancer panel; single dose 10^−5 M; read-out: Growth inhibition %
RXF 393 = conditions: Homo sapiens; RXF 393, Renal Cancer panel; single dose 10^−5 M; read-out: Growth inhibition %
NCI-H23 = conditions: Homo sapiens; NCI-H23, Non-small cell lung panel; single dose 10^−5 M; read-out: Growth inhibition %
SN12C = conditions: Homo sapiens, Renal Cancer panel, single dose 10^−5 M, read-out: Growth inhibition %
MCF7 = conditions: Homo sapiens; MCF7, Breast Cancer panel; single dose 10^−5 M; read-out: Growth inhibition %
A549/ATCC = conditions: Homo sapiens, Non-small cell lung panel, single dose 10^−5 M, read-out: Growth inhibition %
NCI/ADR-RES = conditions: Homo sapiens, Ovarian Cancer panel, single dose 10^−5 M, read-out: Growth inhibition %
A498 = conditions: Homo sapiens; A498, Renal Cancer panel; single dose 10^−5 M; read-out: Growth inhibition %
MALME-3M = conditions: Homo sapiens, Melanoma panel, single dose 10^−5 M, read-out: Growth inhibition %
HOP-92 = conditions: Homo sapiens; HOP-92, Non-small cell lung panel; single dose 10^−5 M; read-out: Growth inhibition %
U251 = conditions: Homo sapiens, U-251; U251, CNS Cancer panel; single dose 10^−5 M; read-out: Growth inhibition %
HCT-116 = conditions: Homo sapiens, read-out: Growth inhibition %
SK-MEL-2 = conditions: Homo sapiens; SK-MEL-2, Melanoma panel; single dose 10^−5 M; read-out: Growth inhibition %
SNB-19 = conditions: Homo sapiens; SNB-19, CNS Cancer panel; single dose 10^−5 M; read-out: Growth inhibition %
HCC-2998 = conditions: Homo sapiens; HCC-2998, Colon Cancer panel; single dose 10^−5 M; read-out: Growth inhibition %
PC-3 = conditions: Homo sapiens; PC-3, Prostate Cancer panel; single dose 10^−5 M; read-out: Growth inhibition %
SF-539 = conditions: Homo sapiens; SF-539, CNS Cancer panel; single dose 10^−5 M; read-out: Growth inhibition %
UACC-62 = conditions: Homo sapiens; UACC-62, Melanoma panel; single dose 10^−5 M; read-out: Growth inhibition %
HOP-62 = conditions: Homo sapiens; HOP-62, Non-small cell lung panel; single dose 10^−5 M; read-out: Growth inhibition %
TK-10 = conditions: Homo sapiens; TK-10, Renal Cancer panel; single dose 10^−5 M; read-out: Growth inhibition %
NCI-H460 = conditions: Homo sapiens; NCI-H460, Non-small cell lung panel; single dose 10^−5 M; read-out: Growth inhibition %
OVCAR-4 = conditions: Homo sapiens; OVCAR-4, Ovarian Cancer panel; single dose 10^−5 M; read-out: Growth inhibition %
UACC-257 = conditions: Homo sapiens; UACC-257, Melanoma panel; single dose 10^−5 M; read-out: Growth inhibition %
MDA-MB-468 = conditions: Homo sapiens; MDA-MB-468, Breast Cancer panel; single dose 10^−5 M; read-out: Growth inhibition %
NCI-H522 = conditions: Homo sapiens; NCI-H522, Non-small cell lung panel; single dose 10^−5 M; read-out: Growth inhibition %
T-47D = conditions: Homo sapiens, T47D, Breast Cancer panel, single dose 10^−5 M, read-out: Growth inhibition %
M14 = conditions: Homo sapiens; M14, Melanoma panel; single dose 10^−5 M; read-out: Growth inhibition %
RPMI-8226 = conditions: Homo sapiens; RPMI-8226, Leukemia panel; single dose 10^−5 M; read-out: Growth inhibition %

SMILES | inhibition at 10 µM (LOX IMVI) | inhibition at 10 µM (SK-OV-3) | inhibition at 10 µM (NCI-H322M) | inhibition at 10 µM (SF-295) | inhibition at 10 µM (OVCAR-5) | inhibition at 10 µM (RXF 393) | inhibition at 10 µM (NCI-H23) | inhibition at 10 µM (SN12C) | inhibition at 10 µM (MCF7) | inhibition at 10 µM (A549/ATCC) | inhibition at 10 µM (NCI/ADR-RES) | inhibition at 10 µM (A498) | inhibition at 10 µM (MALME-3M) | inhibition at 10 µM (HOP-92) | inhibition at 10 µM (U251) | inhibition at 10 µM (HCT-116) | inhibition at 10 µM (SK-MEL-2) | inhibition at 10 µM (SNB-19) | inhibition at 10 µM (HCC-2998) | inhibition at 10 µM (PC-3) | other results
COc1ccc2nc3ccccc3c(NCc3ccccc3)c2c1 [Compound 25, Benzyl-(2-methoxyacridin-9-yl)-amine] | 131% | 55.5% | 70.5% | 80.3% | 71% | 94.1% | 78.5% | 77.5% | 95.7% | 81.8% | 81.7% | 114% | 77.5% | 113% | 77.1% | 85.2% | 52.1% | 75.8% | 136% | 71.3% | inhibition at 10 µM (SF-539): 88.2%; inhibition at 10 µM (UACC-62): 54.1%; inhibition at 10 µM (HOP-62): 66.4%; inhibition at 10 µM (TK-10): 61.3%; inhibition at 10 µM (NCI-H460): 93.7%; inhibition at 10 µM (OVCAR-4): 59.2%; inhibition at 10 µM (UACC-257): 72.9%; inhibition at 10 µM (MDA-MB-468): 110%; inhibition at 10 µM (NCI-H522): 65.4%; inhibition at 10 µM (T-47D): 64.7%; inhibition at 10 µM (M14): 74%; inhibition at 10 µM (RPMI-8226): 131%
COc1ccc2nc3ccccc3c(NCc3ccc(F)cc3)c2c1 [Compound 28, (4-Fluorobenzyl)-(2-methoxyacridin-9-yl)-amine] | 167% | 62.1% | 77.4% | 85.6% | 82% | 119% | 86% | 83% | 128% | 80.3% | 84.9% | 108% | 105% | 111% | 77.9% | 91.1% | 65% | 82.3% | 178% | 82.9% | inhibition at 10 µM (SF-539): 96.2%; inhibition at 10 µM (UACC-62): 60.9%; inhibition at 10 µM (HOP-62): 71.8%; inhibition at 10 µM (TK-10): 62.2%; inhibition at 10 µM (NCI-H460): 94.5%; inhibition at 10 µM (OVCAR-4): 86.4%; inhibition at 10 µM (UACC-257): 111%; inhibition at 10 µM (MDA-MB-468): 124%; inhibition at 10 µM (NCI-H522): 81.8%; inhibition at 10 µM (T-47D): 63.5%; inhibition at 10 µM (M14): 84.7%; inhibition at 10 µM (RPMI-8226): 143%
